These results are taken from US20150141433A1, “N-ARYLMETHYL SULFONAMIDE NEGATIVE MODULATORS OF NR2A” (Mnemosyne Pharmaceuticals, Inc., priority 2013, published 2015).

Read-outs that look alike come from different tables or passages of the source. Where only a bound is given, the exact number is not on record here.

For this assay, the target named is T1, NR1/NR2A (Homo sapiens, UniProt Q05586+Q12879).
T1 construct: host or cells: HEK293 (tetracycline-inducible NR2A expression)
Kind of assay: FDSS Ca2+ influx inhibition assay in HEK293 cells expressing NR1/NR2A. The format is cell-based. The procedure: Cell Culture and plating: HEK293 cells expressing NR1/NR2A (Chantest, Cleveland, Ohio) were grown to 70-80% confluency as an adherent monolayer in standard tissue culture flasks at 37° C., 5% CO2 per supplier's instructions.
After induction, cell culture medium was removed and cells were rinsed once with Ca^2+ and Mg^2+-free Dulbecco's phosphate buffered saline. Cells were then removed from the flask using TrypLE™ Express (Life Technologies) according to the manufacturer's instructions and collected to 50 ml centrifuge tubes. Following two washes in Ca^27 Mg^2′-free HBSS with 20 mM HEPES (HHnoCa), cells were counted and viability assessed using trypan blue. To load cells with Ca^2′-sensitive dye, they were resuspended in fluo-8 plus Component B (AAT Bioquest Products) diluted in HHnoCa and incubated 15 minutes at 37° C., followed by 30 minutes at room temp (in dark). Cells were then washed and resuspended in HHnoCa to remove extracellular dye and plated in 384-well plates (Falcon, uncoated) at 20,000-30,000 cells/well in a final volume of 25 μL/well.
FDSS Assay: To each well of the plate, 10 μLtest compound, control (MK801) or HHnoCa buffer was added to a final concentration of 10 μM with a final concentration of DMSO of 0.1%. Following 10 minutes pre-incubation in the dark, plates are loaded onto the Hamamatsu FDSS 6000. After collecting baseline fluorescence images, 3 μM glutamate, 3 μM glycine, and 1 mM Ca^2+ in HHnoCa buffer is added to each well, and Ca^2+ is recorded for 3 minutes. Data were processed by computing ratio of fluorescence at the end of data collection to baseline fluorescence to assess degree of Ca^2+ influx inhibition relative to that observed in MK801.

Where [1] appears, read: 3 μM glutamate, 3 μM glycine, 1 mM Ca2+, Ca2+ influx inhibition relative to MK801, read-out: NR2A IC50.
Where [2] appears, read: binned NR2A inhibition concentration, read-out: Binned Activity.

T1 sequence (Q12879 23-1464, other chains not shown): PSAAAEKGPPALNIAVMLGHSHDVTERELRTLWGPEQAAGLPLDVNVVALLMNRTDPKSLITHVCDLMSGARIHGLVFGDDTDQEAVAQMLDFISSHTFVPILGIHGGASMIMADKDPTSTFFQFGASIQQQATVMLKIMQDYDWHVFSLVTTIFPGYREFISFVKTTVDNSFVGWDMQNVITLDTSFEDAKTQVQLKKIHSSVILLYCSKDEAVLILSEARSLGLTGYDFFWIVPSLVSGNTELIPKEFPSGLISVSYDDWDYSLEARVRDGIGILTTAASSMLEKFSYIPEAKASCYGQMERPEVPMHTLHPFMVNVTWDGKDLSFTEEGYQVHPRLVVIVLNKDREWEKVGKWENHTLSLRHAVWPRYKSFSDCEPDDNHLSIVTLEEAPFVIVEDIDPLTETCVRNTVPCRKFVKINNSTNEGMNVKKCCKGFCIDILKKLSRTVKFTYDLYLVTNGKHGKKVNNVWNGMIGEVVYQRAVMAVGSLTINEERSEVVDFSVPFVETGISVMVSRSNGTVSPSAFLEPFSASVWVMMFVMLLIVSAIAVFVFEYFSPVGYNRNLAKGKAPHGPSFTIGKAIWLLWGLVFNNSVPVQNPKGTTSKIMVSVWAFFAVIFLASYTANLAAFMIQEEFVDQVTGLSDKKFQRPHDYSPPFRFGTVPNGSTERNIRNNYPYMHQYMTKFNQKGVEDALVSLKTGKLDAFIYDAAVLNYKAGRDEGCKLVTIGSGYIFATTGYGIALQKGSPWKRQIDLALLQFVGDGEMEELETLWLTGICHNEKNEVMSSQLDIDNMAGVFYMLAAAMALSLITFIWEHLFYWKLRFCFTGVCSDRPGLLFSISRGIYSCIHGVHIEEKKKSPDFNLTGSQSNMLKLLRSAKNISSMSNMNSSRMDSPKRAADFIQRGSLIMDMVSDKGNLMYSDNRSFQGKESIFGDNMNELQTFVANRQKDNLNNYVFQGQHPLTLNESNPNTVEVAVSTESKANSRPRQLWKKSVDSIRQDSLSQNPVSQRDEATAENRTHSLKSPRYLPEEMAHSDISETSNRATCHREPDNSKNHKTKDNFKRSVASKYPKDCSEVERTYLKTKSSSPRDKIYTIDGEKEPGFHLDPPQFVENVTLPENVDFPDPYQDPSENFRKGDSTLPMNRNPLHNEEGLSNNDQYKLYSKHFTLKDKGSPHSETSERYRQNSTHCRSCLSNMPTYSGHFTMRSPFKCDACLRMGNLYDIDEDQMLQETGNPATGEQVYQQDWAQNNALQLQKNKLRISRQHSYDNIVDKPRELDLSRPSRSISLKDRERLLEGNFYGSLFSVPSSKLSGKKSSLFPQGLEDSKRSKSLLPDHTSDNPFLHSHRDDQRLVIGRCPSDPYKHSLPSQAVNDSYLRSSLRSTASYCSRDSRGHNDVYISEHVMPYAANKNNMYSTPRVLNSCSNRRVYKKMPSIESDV

Take `Cc1ncc(CNC(=O)c2ccc(CNS(=O)(=O)c3ccc(F)c(Cl)c3)cn2)s1` [5-(3-chloro-4-fluorobenzenesulfon-amidomethyl)-N-[(2-methyl-1,3-thiazol-5-yl)methyl]pyridine-2-carboxamide]: the IC50 under setting [1] was found to be 204 nM.

`COc1cccc(CNC(=O)c2ccc(CNS(=O)(=O)c3ccc(F)c(Cl)c3)cn2)c1` [5-(3-chloro-4-fluorobenzenesulfon-amidomethyl)-N-[(3-methoxyphenyl)methyl] pyridine-2-carboxamide]: the IC50 under setting [1] amounted to 3370 nM.

In the case of `Cc1csc(CNC(=O)c2cnc(CNS(=O)(=O)c3ccc(F)c(Cl)c3)cn2)n1` [5-(3-chloro-4-fluorobenzenesulfon-amidomethyl)-N-[(4-methyl-1,3-thiazol-2-yl)methyl]pyrazine-2-carboxamide], the IC50 under setting [1] is not below 10000 nM and the IC50 under setting [2] was more than 10000 nM.

In the case of `Cc1ccncc1CNC(=O)c1cnc(CNS(=O)(=O)c2ccc(F)c(Cl)c2)cn1` [5-(3-chloro-4-fluorobenzenesulfon-amidomethyl)-N-[(4-methylpyridin-3-yl)methyl]pyrazine-2-carboxamide], the IC50 under setting [1] came out at 108 nM.

On to `Cc1ccncc1CNC(=O)c1ccc(CNS(=O)(=O)c2ccc(F)c(Cl)c2)cn1` [5-(3-chloro-4-fluorobenzenesulfon-amidomethyl)-N-[(4-methylpyridin-3-yl)methyl]pyridine-2-carboxamide], for which the IC50 under setting [1] was 187 nM.

Regarding `O=C(NCc1cncc(F)c1)c1cnc(CNS(=O)(=O)c2ccc(F)c(Cl)c2)cn1` [5-(3-chloro-4-fluorobenzenesulfon-amidomethyl)-N-[(5-fluoropyridin-3-yl)methyl]pyrazine-2-carboxamide], the IC50 under setting [1] came out at 1100 nM.

In the case of `Cc1nnc(CNC(=O)c2cnc(CNS(=O)(=O)c3ccc(F)c(Cl)c3)cn2)o1` [5-(3-chloro-4-fluorobenzenesulfon-amidomethyl)-N-[(5-methyl-1,3,4-oxadiazol-2-yl)methyl]pyrazine-2-carboxamide], under setting [1], the IC50 was found to be 2430 nM.

As to `Cc1nnc(CNC(=O)c2ccc(CNS(=O)(=O)c3ccc(F)c(Cl)c3)cn2)o1` [5-(3-chloro-4-fluorobenzenesulfon-amidomethyl)-N-[(5-methyl-1,3,4-oxadiazol-2-yl)methyl]pyridine-2-carboxamide], under setting [1], the IC50 was determined as 2830 nM.

Turning to `Cc1nnc(CNC(=O)c2cnc(CNS(=O)(=O)c3ccc(F)c(Cl)c3)cn2)s1` [5-(3-chloro-4-fluorobenzenesulfon-amidomethyl)-N-[(5-methyl-1,3,4-thiadiazol-2-yl)methyl]pyrazine-2-carboxamide], under setting [1], the IC50 was 624 nM.

Consider `Cc1nnc(CNC(=O)c2ccc(CNS(=O)(=O)c3ccc(F)c(Cl)c3)cn2)s1` [5-(3-chloro-4-fluorobenzenesulfon-amidomethyl)-N-[(5-methyl-1,3,4-thiadiazol-2-yl)methyl]pyridine-2-carboxamide], for which the IC50 under setting [1] was found to be 1020 nM.

For the molecule `Cc1cnc(CNC(=O)c2cnc(CNS(=O)(=O)c3ccc(F)c(Cl)c3)cn2)cn1` [5-(3-chloro-4-fluorobenzenesulfon-amidomethyl)-N-[(5-methylpyrazin-2-yl)methyl]pyrazine-2-carboxamide], the IC50 under setting [1] came to 1250 nM.

With `COc1ccc(CNC(=O)c2ccc(CNS(=O)(=O)c3ccc(F)c(Cl)c3)cn2)cn1` [5-(3-chloro-4-fluorobenzenesulfon-amidomethyl)-N-[(6-methoxypyridin-3-yl)methyl]pyridine-2-carboxamide], the IC50 under setting [1] was found to be 2000 nM.

Take `Cc1ncc(CNC(=O)c2cnc(CNS(=O)(=O)c3cccc(Cl)c3)c(C)n2)s1` [5-(3-chlorobenzenesulfon-amidomethyl)-6-methyl-N-[(2-methyl-1,3-thiazol-5-yl)methyl]pyrazine-2-carboxamide]: the IC50 under setting [1] stood at 39.5 nM.

As for `Cc1ncc(CNC(=O)c2cnc(CNS(=O)(=O)c3cccc(Cl)c3)cn2)s1` [5-(3-chlorobenzenesulfon-amidomethyl)-N-[(2-methyl-1,3-thiazol-5-yl)methyl]pyrazine-2-carboxamide], the IC50 under setting [1] came to 839 nM.

`Cc1ncc(CNC(=O)c2ccc(CNS(=O)(=O)c3cccc(Cl)c3)cn2)s1` [5-(3-chlorobenzenesulfon-amidomethyl)-N-[(2-methyl-1,3-thiazol-5-yl)methyl]pyridine-2-carboxamide]: under setting [1], the IC50 came out at 1040 nM.

Regarding `Cc1ncc(CNC(=O)c2cnc(CNS(=O)(=O)c3ccc(Cl)c(F)c3)c(C)n2)s1` [5-(4-chloro-3-fluorobenzenesulfon-amidomethyl)-6-methyl-N-[(2-methyl-1,3-thiazol-5-yl)methyl]pyrazine-2-carboxamide], the IC50 under setting [1] is 1020 nM.

`Cc1ncc(CNC(=O)c2ccc(CNS(=O)(=O)c3ccc(Cl)c(F)c3)cn2)s1` [5-(4-chloro-3-fluorobenzenesulfon-amidomethyl)-N-[(2-methyl-1,3-thiazol-5-yl)methyl]pyridine-2-carboxamide]: under setting [1], the IC50 was 7450 nM.

As to `Cc1ncc(CNC(=O)c2cnc(CNS(=O)(=O)c3ccc(F)cc3)c(C)n2)s1` [5-(4-fluorobenzenesulfon-amidomethyl)-6-methyl-N-[(2-methyl-1,3-thiazol-5-yl)methyl]pyrazine-2-carboxamide], under setting [1], the IC50 worked out at 137 nM.

For the molecule `Cc1ncc(CNC(=O)c2cnc(CNS(=O)(=O)c3ccc(F)cc3)cn2)s1` [5-(4-fluorobenzenesulfon-amidomethyl)-N-[(2-methyl-1,3-thiazol-5-yl)methyl]pyrazine-2-carboxamide], under setting [1], the IC50 is 5510 nM.

For `Cc1ncc(CNC(=O)c2ccc(CNS(=O)(=O)c3ccc(F)cc3)cn2)s1` [5-(4-fluorobenzenesulfon-amidomethyl)-N-[(2-methyl-1,3-thiazol-5-yl)methyl]pyridine-2-carboxamide], the IC50 under setting [1] stood at 2840 nM.

As to `Cc1ncc(CNC(=O)c2cnc(CNS(=O)(=O)c3cc(Cl)ccc3F)c(C)n2)s1` [5-(5-chloro-2-fluorobenzenesulfon-amidomethyl)-6-methyl-N-[(2-methyl-1,3-thiazol-5-yl)methyl]pyrazine-2-carboxamide], the IC50 under setting [1] was 8060 nM.

Consider `O=C(NCc1cnccn1)c1ccc(CNS(=O)(=O)c2ccc(F)c(Cl)c2)nc1` [6-(3-chloro-4-fluorobenzenesulfon-amidomethyl)-N-(pyrazin-2-ylmethyl)pyridine-3-carboxamide], for which the IC50 under setting [1] came out at 790 nM.

As for `O=C(NCc1cccnc1)c1ccc(CNS(=O)(=O)c2ccc(F)c(Cl)c2)nc1` [6-(3-chloro-4-fluorobenzenesulfon-amidomethyl)-N-(pyridin-3-ylmethyl)pyridine-3-carboxamide], the IC50 under setting [1] amounted to 11000 nM.

`C[C@@H](NC(=O)c1ccc(CNS(=O)(=O)c2ccc(F)c(Cl)c2)nc1)c1cncs1` [6-(3-chloro-4-fluorobenzenesulfon-amidomethyl)-N-[(1R)-1-(1,3-thiazol-5-yl)ethyl]pyridine-3-carboxamide]: the IC50 under setting [1] is not below 10000 nM and the IC50 under setting [2] is more than 10000 nM.

With `Cc1ccncc1CNC(=O)c1ccc(CNS(=O)(=O)c2ccc(F)c(Cl)c2)nc1` [6-(3-chloro-4-fluorobenzenesulfon-amidomethyl)-N-[(4-methylpyridin-3-yl)methyl]pyridine-3-carboxamide], under setting [1], the IC50 was 9750 nM.

In the case of `Cc1cnc(CNC(=O)c2ccc(CNS(=O)(=O)c3ccc(F)c(Cl)c3)nc2)cn1` [6-(3-chloro-4-fluorobenzenesulfon-amidomethyl)-N-[(5-methylpyrazin-2-yl)methyl]pyridine-3-carboxamide], the IC50 under setting [1] stood at 630 nM.

As for `Cn1ccnc1CNC(=O)c1ccc(CNS(=O)(=O)c2ccc(F)c(Cl)c2)nc1` [6-(3-chloro-4-fluorobenzenesulfon-amidomethyl)-N-[(l-methyl-1H-imidazol-2-yl)methyl]pyridine-3-carboxamide], the IC50 under setting [1] was determined as 108 nM.

For `Cc1ncc(CNC(=O)c2cnc(CNS(=O)(=O)c3cccs3)cn2)s1` [N-[(2-methyl-1,3-thiazol-5-yl)methyl]-5-(thiophene-2-sulfonamidomethyl) pyrazine-2-carboxamide], the IC50 under setting [1] amounted to 3770 nM.

With `Cc1ncc(CNC(=O)c2ccc(CNS(=O)(=O)c3cccs3)cn2)s1` [N-[(2-methyl-1,3-thiazol-5-yl)methyl]-5-(thiophene-2-sulfonamidomethyl) pyridine-2-carboxamide], the IC50 under setting [1] is 4020 nM.
